Data set [1] in a line: Soy seed treatment field trials (yield). The data set is classed as in vivo. To be noted: seed treatment in soy, multi-location replicated field trials. The protocol:
(§1) Tioxazafen was combined with commercial fungicides and insecticides in a tank slurry mix with colorant, polymer, and water at the recommended rates and allowed to mix thoroughly. Using a Gustafson continuous batch seed coater the seed batch was loaded, the treatment slurry was injected and the mixture was allowed to tumble for 35-40 seconds before being ejected into a paper storage bag.
(§2) Predictive nematode sampling was conducted prior to field trial implementation to ensure appropriate levels of nematode pressure. Trial areas were divided into 2 acre sections based upon soil type, crop history, tillage, drainage, fertilization and other agronomic factors. […] Sub-samples (˜1 pint of soil) were taken from each composite sample and placed in a plastic bag, with appropriate handling to ensure viability of nematodes, and sent to a lab for nematode quantification. […]
(§3) Quantitative in-season nematode sampling using root and soil samples was conducted eight weeks after planting for corn and soy trials. […] Samples were sent to a lab for nematode quantification.
(§4) Yield data was collected using commercially available harvesting equipment to harvest each plot. The data were calculated to represent bushels per acre by taking the grain weight over the square footage of each plot and adjusting to 15% moisture.

Data set [2] is described as follows: Corn seed treatment field trials (yield). Format: in vivo. To be noted: seed treatment in corn, multi-location replicated field trials. On the procedure:
as §1, §2, §3, §4

The subject of data set [3] is Meloidogyne incognita (RKN). Briefly: Seed treatment test of root knot nematode on cucumber. Format: in vivo. To be noted: 10 mg ai/gram seed (abamectin positive control), cucumber seeds. On the procedure:
For a given concentration the chemical is dissolved in 500 ul of acetone and one gram of cucumber seed (RKN test) or soybean seed (SCN test) is added (e.g., 20 mg active ingredient in 500 ul acetone plus 1 gram of seed). The seed solutions are agitated until all seeds were thoroughly covered with the chemical solution. The acetone is then allowed to evaporate by air drying the seeds. The seeds are planted in 2-inch pots containing sandy soil and then the pots are inoculated with 1000 Meloidogyne incognita (RKN) or 1000 Heterodera glycines (SCN) eggs per pot three days after planting. Plants are rated for galling 14 days after egg inoculation for RKN or 28 days after egg inoculation for SCN.

For data set [4] the following is noted: mice; cited from earlier work.
For data set [5], the system named is Heterodera glycines (SCN). Briefly: Seed treatment test of soybean cyst nematode on soybean. Format: in vivo. To be noted: test a. In short, it runs like this: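 Seeds (1 g cucumber for RKN, soybean for SCN) coated with compound in 500 ul acetone, air-dried, sown in sandy soil. Pots inoculated 3 days later with 1000 eggs per pot. Galling rated 14 days (RKN) or 28 days (SCN) after inoculation.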

Marks after values point to notes of the source that are not given here.

Consider `c1ccc(-c2noc(-c3cccs3)n2)cc1` [Tioxazafen, 3-phenyl-5-(2-thienyl)-1,2,4-oxadiazole], for which the effect on yield entry in data set [1] and in data set [2] was “yield enhancement” in each case.
Regarding Abamectin [reference compound], the “percent control (galling reduction) relative to the control blank treatment” value in data set [3] came to 84%. Further, in data set [4], the “oral LD50” value is 13.6 mg/kg. Further, the “percent cyst reduction relative to control blank treatment” value in data set [5] (0.375 mg ai/gram seed) is recorded as −14^a percent; in data set [5] (1.5 mg ai/gram seed) it was −24^a percent.
